Numbers after ± are expanded uncertainties.
Test: xn = mol fraction of the nth substance listed
Details: 101.3 kPa, Liquid, Vibrating tube method

COCCOCCOC [2,5,8-trioxanonane] + ClCCCl
mass density [kg/m3]
Details | 308.15 K | 313.15 K | 318.15 K | 323.15 K | 328.15 K | 333.15 K
x2 = 0.0252 | – | 928.2 ± 0.25 | 923.14 ± 0.25 | 918.07 ± 0.25 | 912.99 ± 0.25 | 907.88 ± 0.25
x2 = 0.0508 | – | 932.81 ± 0.24 | 927.72 ± 0.24 | 922.62 ± 0.24 | 917.5 ± 0.24 | 912.36 ± 0.24
x2 = 0.0751 | – | 937.26 ± 0.24 | 932.15 ± 0.24 | 927.01 ± 0.24 | 921.85 ± 0.24 | 916.68 ± 0.24
x2 = 0.1 | – | 941.89 ± 0.23 | 936.74 ± 0.23 | 931.58 ± 0.23 | 926.39 ± 0.23 | 921.19 ± 0.23
x2 = 0.1502 | – | 951.65 ± 0.22 | 946.43 ± 0.22 | 941.2 ± 0.22 | 935.95 ± 0.22 | 930.67 ± 0.22
x2 = 0.1999 | – | 961.71 ± 0.22 | 956.42 ± 0.22 | 951.12 ± 0.22 | 945.79 ± 0.22 | 940.45 ± 0.22
x2 = 0.25 | – | 972.4 ± 0.21 | 967.04 ± 0.21 | 961.66 ± 0.21 | 956.26 ± 0.21 | 950.83 ± 0.21
x2 = 0.3002 | – | 983.61 ± 0.2 | 978.16 ± 0.2 | 972.68 ± 0.2 | 967.18 ± 0.2 | 961.67 ± 0.2
x2 = 0.3501 | – | 995.21 ± 0.2 | 989.69 ± 0.2 | 984.14 ± 0.2 | 978.56 ± 0.2 | 972.96 ± 0.2
x2 = 0.4 | 1013.05 ± 0.2 | 1007.46 ± 0.2 | 1001.83 ± 0.19 | 996.19 ± 0.19 | 990.53 ± 0.19 | 984.84 ± 0.19
x2 = 0.45 | 1025.99 ± 0.2 | 1020.29 ± 0.2 | 1014.56 ± 0.2 | 1008.81 ± 0.2 | 1003.05 ± 0.19 | 997.27 ± 0.19
x2 = 0.5003 | 1039.78 ± 0.21 | 1033.98 ± 0.21 | 1028.16 ± 0.2 | 1022.31 ± 0.2 | 1016.44 ± 0.2 | 1010.54 ± 0.2
x2 = 0.5499 | 1054.03 ± 0.22 | 1048.12 ± 0.21 | 1042.19 ± 0.21 | 1036.25 ± 0.21 | 1030.26 ± 0.2 | 1024.25 ± 0.2
x2 = 0.5999 | 1069.2 ± 0.22 | 1063.17 ± 0.22 | 1057.13 ± 0.22 | 1051.05 ± 0.21 | 1044.95 ± 0.21 | 1038.81 ± 0.21
x2 = 0.6501 | 1085.36 ± 0.23 | 1079.21 ± 0.23 | 1073.04 ± 0.23 | 1066.84 ± 0.22 | 1060.6 ± 0.22 | 1054.34 ± 0.22
x2 = 0.7 | 1102.36 ± 0.24 | 1096.08 ± 0.24 | 1089.77 ± 0.24 | 1083.44 ± 0.23 | 1077.08 ± 0.23 | 1070.67 ± 0.23
x2 = 0.75 | 1120.21 ± 0.25 | 1113.78 ± 0.25 | 1107.32 ± 0.25 | 1100.83 ± 0.24 | 1094.32 ± 0.24 | 1087.77 ± 0.24
x2 = 0.8 | 1139.52 ± 0.27 | 1132.93 ± 0.26 | 1126.31 ± 0.26 | 1119.65 ± 0.26 | 1112.98 ± 0.26 | 1106.28 ± 0.25
x2 = 0.8499 | 1159.94 ± 0.28 | 1153.19 ± 0.28 | 1146.4 ± 0.28 | 1139.57 ± 0.27 | 1132.71 ± 0.27 | 1125.84 ± 0.27
x2 = 0.9 | 1181.94 ± 0.3 | 1175 ± 0.29 | 1168.02 ± 0.29 | 1160.99 ± 0.29 | 1153.95 ± 0.28 | 1146.89 ± 0.28
x2 = 0.925 | 1193.47 ± 0.31 | 1186.42 ± 0.31 | 1179.34 ± 0.31 | 1172.21 ± 0.3 | 1165.08 ± 0.3 | 1157.9 ± 0.29
x2 = 0.9494 | 1205.37 ± 0.32 | 1198.22 ± 0.32 | 1191.02 ± 0.31 | 1183.78 ± 0.31 | 1176.54 ± 0.31 | 1169.26 ± 0.3
x2 = 0.975 | 1218.05 ± 0.33 | 1210.78 ± 0.32 | – | – | – | –

— the NIST ThermoML archive (doi:10.1021/je101361u)
